Where two headings read alike, the source gives them in different places.
Tests used:
cyclin B/CDK1 enzyme = target: T1, cyclin B/CDK1 enzyme (Homo sapiens, UniProt P06493); experiment: CDK1 ELISA kinase assay (phospho-Rb ser 795 detection); format: biochemical
T1 construct: purchased New England BioLabs; host or cells: Sf9 insect cells, recombinant baculovirus
Experimental: (§1) • 1. High-binding ELISA microtiter plates (Costar) were coated with 40 μl of the kinase substrate (GST fusion of C-terminal fragment of the retinoblastoma susceptibility gene product) diluted to 10 μg/ml in tris-buffered saline (TBS), overnight at 4° C. • 2. Non-specific binding sites were blocked for 1 hour at 4° C. with Superblock in TBS (Pierce), and the plates rinsed with water. • 3. For the screen, 1.5 μl of test compound (200 μg/ml stock in 20% DMSO/20 mM HEPES, pH 7.5) was added to each well. Final dose of the test compound in the assay was 10 ug/ml. […] The kinase reaction (30 μl) was dispensed into each well. Reactions contained 200 μM ATP, 0.5 mg/ml bovine serum albumin (BSA; Sigma), and 0.5 μl partially purified cyclin D1/cdk 4 enzyme*. The enzyme complex is expressed in insect cells (Sf9) infected with recombinant baculovirus and partially purified using ammonium sulfate fractionation. Reaction volumes were adjusted to 30 μl with kinase assay buffer (50 mM HEPES, pH 7.5, 10 mM MgCl2, 5% glycerol, 10 mM 2-mercaptoethanol). • *: For CDK2 assay, 1.0 μl cyclin E/CDK2 enzyme (diluted 1:1000 in kinase assay buffer) was used. The enzyme is isolated from insect cells (Sf9) infected with recombinant baculovirus and partially purified using ammonium sulfate fractionation. For CDK1 assay, 0.08 μl cyclin B/CDK1 enzyme [New England BioLabs; the enzyme is isolated from insect cells (Sf9) infected with recombinant baculovirus carrying human cdc 2 and human cyclin B] was used.
(§2) […] • 5. Plates were incubated at 30° C. for 1 hour. • 6. The reaction mixture was removed by aspiration and replaced with 250 μl TBS containing 0.1% Tween-20 and 5% nonfat dry milk (blocking buffer). The plates were incubated at 4° C. for 1 hour. • 7. The blocking buffer was removed and replaced with 50 μl of the primary antibody [anti-phospho-Rb ser 795 (New England BioLabs) diluted 1:1000 in blocking buffer]. Incubation was at 4° C. for 16-20 hours. • 8. The wells were rinsed 3 times with 250 μl of TBS containing 0.1% Tween-20 followed by the addition of 50 μl of secondary antibody [anti-rabbit IgG conjugated to horseradish peroxidase (Amersham Life Science) diluted 1:1000 in blocking buffer]. • 9. After a 1 hour incubation at room temperature, the wells were rinsed 3 times with 250 μl of TBS/0.1% Tween 20. • 10. TMB (3,3′,5,5′-tetramethylbenzidine dihydrochloride) substrate solution (100 μl; Pierce) was added to each well and the color development reaction allowed to proceed 5-10 minutes at room temperature with shaking. The reaction was stopped by the addition of 2N sulfuric acid (100 μl) and the absorbance values read at 450 nm in a microplate reader (Molecular Devices). Analysis of Results: • 1. The percentage of the absorbance value in wells containing the test compound relative to control wells (no test agent) was determined. • 2. IC50 values of selected compounds were determined from inhibition curves, after subtracting background values (no substrate).

cyclin D1/cdk 4 enzyme = target: T2, cyclin D1/cdk 4 enzyme (Homo sapiens, UniProt P11802); experiment: CDK4 ELISA kinase assay (phospho-Rb ser 795 detection); format: biochemical
T2 construct: made in house; host or cells: Sf9 insect cells, recombinant baculovirus
In short: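 Screening was done at 10 ug/ml compound. Each partially purified cyclin/CDK complex, produced in baculovirus-infected Sf9 cells, phosphorylated a coated GST-Rb C-terminal fragment with 200 μM ATP, and Ser795 phosphorylation was quantified by HRP-ELISA at 450 nm.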

cyclin E/CDK2 enzyme = target: T3, cyclin E/CDK2 enzyme (Homo sapiens, UniProt P24941); experiment: CDK2 ELISA kinase assay (phospho-Rb ser 795 detection); format: biochemical
T3 construct: made in house; host or cells: Sf9 insect cells, recombinant baculovirus
Experimental: as §1, §2

HCT-116 = experiment: Cytotoxicity assay (SRB), HCT-116; format: cell-based; conditions: Homo sapiens, HCT-116, 72 h, HCT116 cells, 3 days, SRB; read-out: In Vitro Cellular Activity IC50 HCT116
In short: (§3)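 Overnight-seeded monolayers (4000–12000 cells/well by line) receive compound in 5% FBS medium at 37 °C, 7% CO2. After 3 d, or 6 d for BT474, cellular protein is fixed with cold TCA, stained with SRB and read at 540 nm against untreated wells.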

BT474 = experiment: Cytotoxicity assay (SRB), BT474; format: cell-based; conditions: Homo sapiens, BT-474, 144 h, BT474 cells, 6 days, SRB; read-out: In Vitro Cellular Activity IC50 BT474
In short: as §3

LoVo = experiment: Cytotoxicity assay (SRB), LoVo; format: cell-based; conditions: Homo sapiens, LoVo, 72 h, LoVo cells, 3 days, SRB; read-out: In Vitro Cellular Activity IC50 LOVO
In short: as §3

MCF-7 = experiment: Cytotoxicity assay (SRB), MCF-7; format: cell-based; conditions: Homo sapiens, MCF7, 72 h, MCF-7 cells, 3 days, SRB; read-out: In Vitro Cellular Activity IC50 MCF-7
In short: as §3

[1] = In Vitro Enzyme Assays, read-out: CDK1 IC50
[2] = In Vitro Enzyme Assays, 200 μM ATP, read-out: CDK4 IC50
[3] = In Vitro Enzyme Assays, read-out: CDK2 IC50
[4] = In Vitro Enzyme Assay, cyclin B/CDK1, read-out: CDK1 IC50
[5] = In Vitro Enzyme Assay, cyclin D1/cdk 4, read-out: CDK4 IC50
[6] = In Vitro Enzyme Assay, cyclin E/CDK2, read-out: CDK2 IC50

T1 sequence (P06493 whole entry): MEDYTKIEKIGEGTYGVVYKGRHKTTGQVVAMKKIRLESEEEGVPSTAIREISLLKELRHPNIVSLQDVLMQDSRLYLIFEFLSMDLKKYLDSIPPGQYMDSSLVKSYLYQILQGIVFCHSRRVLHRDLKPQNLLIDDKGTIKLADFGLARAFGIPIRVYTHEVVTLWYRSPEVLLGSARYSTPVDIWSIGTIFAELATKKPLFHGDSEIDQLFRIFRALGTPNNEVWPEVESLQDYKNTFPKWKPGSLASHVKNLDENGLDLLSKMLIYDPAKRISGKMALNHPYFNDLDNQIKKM
T1 sequence (P14635 whole entry partner): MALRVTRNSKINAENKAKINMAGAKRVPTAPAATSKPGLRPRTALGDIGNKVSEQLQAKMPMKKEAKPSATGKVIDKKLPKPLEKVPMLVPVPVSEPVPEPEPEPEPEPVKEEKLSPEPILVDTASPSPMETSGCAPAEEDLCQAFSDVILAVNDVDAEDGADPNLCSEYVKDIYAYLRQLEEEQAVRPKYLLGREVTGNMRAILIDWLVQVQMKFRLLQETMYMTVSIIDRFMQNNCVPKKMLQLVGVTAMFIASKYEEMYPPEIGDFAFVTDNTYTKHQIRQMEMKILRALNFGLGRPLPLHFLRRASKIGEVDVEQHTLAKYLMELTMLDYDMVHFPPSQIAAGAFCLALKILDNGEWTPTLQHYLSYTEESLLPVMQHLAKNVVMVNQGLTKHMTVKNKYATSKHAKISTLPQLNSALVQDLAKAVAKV
T2 sequence (P11802 whole entry, species assumed): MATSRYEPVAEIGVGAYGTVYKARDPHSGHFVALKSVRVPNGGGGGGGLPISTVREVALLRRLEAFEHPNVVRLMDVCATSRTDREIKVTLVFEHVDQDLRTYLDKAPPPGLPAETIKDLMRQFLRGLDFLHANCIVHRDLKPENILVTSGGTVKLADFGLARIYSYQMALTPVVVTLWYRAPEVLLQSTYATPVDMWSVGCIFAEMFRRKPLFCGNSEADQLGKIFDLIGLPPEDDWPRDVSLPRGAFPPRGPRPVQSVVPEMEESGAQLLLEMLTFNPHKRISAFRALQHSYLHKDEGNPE
T2 sequence (P24385 whole entry partner, species assumed): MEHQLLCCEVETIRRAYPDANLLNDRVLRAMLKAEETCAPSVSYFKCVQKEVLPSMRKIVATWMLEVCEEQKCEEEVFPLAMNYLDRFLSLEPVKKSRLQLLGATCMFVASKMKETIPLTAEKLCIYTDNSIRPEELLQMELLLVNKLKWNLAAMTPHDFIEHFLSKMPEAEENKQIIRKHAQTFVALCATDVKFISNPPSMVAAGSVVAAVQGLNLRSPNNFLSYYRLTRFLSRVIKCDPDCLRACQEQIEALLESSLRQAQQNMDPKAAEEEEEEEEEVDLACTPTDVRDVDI

O=C1NC(=O)c2ccc(Br)cc2/C1=C/NCc1ccc(O)c(O)c1 [Example 40, (4Z)-6-Bromo-4-{[(3,4-dihydroxybenzyl)amino]methylene}isoquinoline-1,3(2H,4H)-dione]
IC50 (cyclin B/CDK1 enzyme; [1]): > 50 µM
IC50 (cyclin D1/cdk 4 enzyme; [2]): 0.04 µM
IC50 (cyclin E/CDK2 enzyme; [3]): > 50 µM

COc1ccc(CN/C=C2\C(=O)NC(=O)c3ccc(Cl)cc32)cc1O [Example 67, (4Z)-6-Chloro-4-{[(3-hydroxy-4-methoxybenzyl)amino]methylene}isoquinoline-1,3(2H,4H)-dione]
IC50 (cyclin B/CDK1 enzyme; [1]): > 50 µM
IC50 (cyclin D1/cdk 4 enzyme; [2]): 0.23 µM
IC50 (cyclin E/CDK2 enzyme; [3]): > 50 µM

Nc1cc(CN/C=C2\C(=O)NC(=O)c3ccc(Br)cc32)cc(O)c1O [Example 204, (4Z)-4-{[(3-Amino-4,5-dihydroxybenzyl)amino]methylene}-6-bromoisoquinoline-1,3(2H,4H)-dione]
IC50 (cyclin B/CDK1 enzyme; [1]): > 50 µM
IC50 (cyclin D1/cdk 4 enzyme; [2]): 0.22 µM
IC50 (cyclin E/CDK2 enzyme; [3]): 7 µM

O=C1NC(=O)c2ccc(Br)cc2C1=CNc1ccc(-c2cccnc2)cc1 [Example 349, 6-Bromo-4-[(4-pyridin-3-yl-phenylamino)-methylene]-4H-isoquinoline-1,3-dione]
IC50 (cyclin B/CDK1 enzyme; [1]): > 50 µM
IC50 (cyclin D1/cdk 4 enzyme; [2]): 37.1 µM
IC50 (cyclin E/CDK2 enzyme; [3]): 36.3 µM

CCCOc1ccc(CN/C=C2\C(=O)NC(=O)c3ccc(Br)cc32)cc1C(=O)O [Example 352, 5-({[(Z)-(6-Bromo-1,3-dioxo-2,3-dihydroisoquinolin-4(1H)-ylidene)methyl]amino}methyl)-2-propoxybenzoic acid]
IC50 (cyclin B/CDK1 enzyme; [1]): 22.6 µM
IC50 (cyclin D1/cdk 4 enzyme; [2]): 1.9 µM
IC50 (cyclin E/CDK2 enzyme; [3]): 12 µM

N=C(N)c1ccc(NC=C2C(=O)NC(=O)c3ccccc32)cc1 [Example 547, 4-[(1,3-Dioxo-2,3-dihydro-1H-isoquinolin-4-ylidenemethyl)-amino]-benzamidine]
IC50 (cyclin B/CDK1 enzyme; [4]): > 50 µM
IC50 (cyclin D1/cdk 4 enzyme; [5]): 13.2 µM
IC50 (cyclin E/CDK2 enzyme; [6]): 6.6 µM

N#CCc1ccc(NC=C2C(=O)NC(=O)c3ccccc32)cc1 [Example 555, {4-[(1,3-Dioxo-2,3-dihydro-1H-isoquinolin-4-ylidenemethyl)-amino]-phenyl}-acetonitrile]
IC50 (cyclin B/CDK1 enzyme; [4]): 45 µM
IC50 (cyclin D1/cdk 4 enzyme; [5]): 14.7 µM
IC50 (cyclin E/CDK2 enzyme; [6]): 21.3 µM

O=C1NC(=O)c2ccccc2C1=CNc1ccc(O)c(C(=O)O)c1 [Example 563, 5-[(1,3-Dioxo-2,3-dihydro-1H-isoquinolin-4-ylidenemethyl)-amino]-2-hydroxy-benzoic acid]
IC50 (cyclin B/CDK1 enzyme; [4]): 18.5 µM
IC50 (cyclin D1/cdk 4 enzyme; [5]): 8.2 µM
IC50 (cyclin E/CDK2 enzyme; [6]): 15.1 µM

O=C1NC(=O)c2ccccc2C1=CNCC(O)c1ccc(O)c(O)c1 (stereo not drawn) [Example 564, 4-{[2-(3,4-Dihydroxy-phenyl)-2-hydroxy-ethylamino]-methylene}-4H-isoquinoline-1,3-dione]
IC50 (cyclin B/CDK1 enzyme; [4]): 16.9 µM
IC50 (cyclin D1/cdk 4 enzyme; [5]): 12.8 µM
IC50 (cyclin E/CDK2 enzyme; [6]): 13.8 µM

O=C1NC(=O)c2ccccc2C1=CNC(Cc1ccc(O)c(O)c1)C(=O)O (stereo not drawn) [Example 567, 3-(3,4-Dihydroxy-phenyl)-2-[(1,3-dioxo-2,3-dihydro-1H-isoquinolin-4-ylidenemethyl)-amino]-propionic acid]
IC50 (cyclin B/CDK1 enzyme; [4]): 17.7 µM
IC50 (cyclin D1/cdk 4 enzyme; [5]): 11.9 µM
IC50 (cyclin E/CDK2 enzyme; [6]): 16.2 µM

NS(=O)(=O)c1ccc(CNC=C2C(=O)NC(=O)c3ccc(C=Cc4ccncc4)cc32)cc1 [Example 653, 4-({[1,3-Dioxo-6-(2-pyridin-4-yl-vinyl)-2,3-dihydro-1H-isoquinolin-4-ylidenemethyl]-amino}-methyl)-benzenesulfonamide]
IC50 (cyclin B/CDK1 enzyme; [4]): > 50 µM
IC50 (cyclin D1/cdk 4 enzyme; [5]): 0.21 µM
IC50 (cyclin E/CDK2 enzyme; [6]): 45.5 µM

NS(=O)(=O)c1ccc(CNC=C2C(=O)NC(=O)c3ccc(C=Cn4ccnc4)cc32)cc1 [Example 658, 4-({[6-(2-Imidazol-1-yl-vinyl)-1,3-dioxo-2,3-dihydro-1H-isoquinolin-4-ylidenemethyl]-amino}-methyl)-benzenesulfonamide]
IC50 (cyclin B/CDK1 enzyme; [4]): > 50 µM
IC50 (cyclin D1/cdk 4 enzyme; [5]): 0.19 µM
IC50 (cyclin E/CDK2 enzyme; [6]): 23.1 µM

O=C1NC(=O)c2ccc(C=Cc3ccncc3)cc2C1=CNCc1ccc(O)c(O)c1 [Example 663, 4-[(3,4-Dihydroxy-benzylamino)-methylene]-6-(2-pyridin-4-yl-vinyl)-4H-isoquinoline-1,3-dione]
IC50 (cyclin B/CDK1 enzyme; [4]): > 50 µM
IC50 (cyclin D1/cdk 4 enzyme; [5]): 0.01 µM
IC50 (cyclin E/CDK2 enzyme; [6]): 6.3 µM

N#Cc1ccc(-c2ccc3c(c2)C(=CNCc2ccc(S(N)(=O)=O)cc2)C(=O)NC3=O)cc1 [Example 755, 4-({[6-(4-Cyano-phenyl)-1,3-dioxo-2,3-dihydro-1H-isoquinolin-4-ylidenemethyl]-amino}-methyl)-benzenesulfonamide]
IC50 (cyclin B/CDK1 enzyme; [4]): 12.3 µM
IC50 (cyclin D1/cdk 4 enzyme; [5]): 0.57 µM
IC50 (cyclin E/CDK2 enzyme; [6]): 7.7 µM

O=C1NC(=O)c2ccc(-c3ccc(C(=O)O)cc3)cc2C1=CNCc1ccc(O)c(O)c1 [Example 770, 4-{4-[(3,4-Dihydroxy-benzylamino)-methylene]-1,3-dioxo-1,2,3,4-tetrahydro-isoquinolin-6-yl}-benzoic acid]
IC50 (cyclin B/CDK1 enzyme; [4]): 18.5 µM
IC50 (cyclin D1/cdk 4 enzyme; [5]): 0.09 µM
IC50 (cyclin E/CDK2 enzyme; [6]): 13.8 µM

CC(=O)c1ccc(-c2ccc3c(c2)C(=CNCc2ccc(O)c(O)c2)C(=O)NC3=O)cc1 [Example 775, 6-(4-Acetyl-phenyl)-4-[(3,4-dihydroxy-benzylamino)-methylene]-4H-isoquinoline-1,3-dione]
IC50 (cyclin B/CDK1 enzyme; [4]): > 50 µM
IC50 (cyclin D1/cdk 4 enzyme; [5]): 0.2 µM
IC50 (cyclin E/CDK2 enzyme; [6]): 14.1 µM

O=C(O)C=Cc1ccc(-c2ccc3c(c2)C(=CNCc2ccc(O)c(O)c2)C(=O)NC3=O)cc1 [Example 788, 3-(4-{4-[(3,4-Dihydroxy-benzylamino)-methylene]-1,3-dioxo-1,2,3,4-tetrahydro-isoquinolin-6-yl}-phenyl)-acrylic acid]
IC50 (cyclin B/CDK1 enzyme; [4]): 17.6 µM
IC50 (cyclin D1/cdk 4 enzyme; [5]): 0.2 µM
IC50 (cyclin E/CDK2 enzyme; [6]): 17.6 µM

O=C(O)C=Cc1cccc(-c2ccc3c(c2)C(=CNCc2ccc(O)c(O)c2)C(=O)NC3=O)c1 [Example 789, 3-(3-{4-[(3,4-Dihydroxy-benzylamino)-methylene]-1,3-dioxo-1,2,3,4-tetrahydro-isoquinolin-6-yl}-phenyl)-acrylic acid]
IC50 (cyclin B/CDK1 enzyme; [4]): > 50 µM
IC50 (cyclin D1/cdk 4 enzyme; [5]): 0.4 µM
IC50 (cyclin E/CDK2 enzyme; [6]): 27.7 µM

COc1ccc(CNC=C2C(=O)NC(=O)c3ccc(C=CCN4CC(=O)NC4=O)cc32)cc1O [Example 826, 6-[3-(2,4-Dioxo-imidazolidin-1-yl)-propenyl]-4-[(3-hydroxy-4-methoxy-benzylamino)-methylene]-4H-isoquinoline-1,3-dione]
IC50 (HCT-116): 36.9 µM
IC50 (BT474): > 50 µM
IC50 (cyclin D1/cdk 4 enzyme; [5]): 0.11 µM
IC50 (LoVo): > 50 µM
IC50 (cyclin E/CDK2 enzyme; [6]): 12.9 µM
IC50 (MCF-7): > 50 µM

Source: US7713994B2 (Wyeth LLC, priority 2005, dated 2010)
